By IC50 is commonly meant the concentration needed to halve the response being measured.

A short description of data set [1]: Selectivity index, ratio of IC50 for cytotoxicity against mouse NIH3T3 cells to IC50 for cytotoxicity against human MCF7 cells. Format: toxicity, cell-based. The following applies: NIH3T3 cells versus MCF7 cells, read-out: Ratio IC50.
Another data set has as its system HepG2. Briefly: Cytotoxicity against human HepG2 cells assessed as cell viability measured after 24 hrs by MTT assay. Format: functional, cell-based. The following applies: HepG2, 24 h.
In a further data set the test system is NIH3T3. Briefly: Cytotoxicity against mouse NIH3T3 cells assessed as cell viability measured after 24 hrs by MTT assay. Format: cell-based. The following applies: NIH3T3, 24 h. Background: Formazan colour is commonly taken as a measure of viable cells.
Data set [2] can be described thus: Selectivity index, ratio of IC50 for cytotoxicity against mouse NIH3T3 cells to IC50 for cytotoxicity against human A549 cells. The following applies: NIH3T3 cells versus A549 cells, read-out: Ratio IC50. Format: toxicity, cell-based.
A short description of data set [3]: Selectivity index, ratio of IC50 for cytotoxicity against mouse NIH3T3 cells to IC50 for cytotoxicity against human HepG2 cells. Format: toxicity, cell-based. As to conditions: NIH3T3 cells versus HepG2 cells, read-out: Ratio IC50.
Another data set concerns HT-29. The experiment in a line: Cytotoxicity against human HT-29 cells assessed as cell viability measured after 24 hrs by MTT assay. The data set is classed as functional, cell-based. The following applies: HT-29, 24 h.
Data set [4] relates to C6. Briefly: Cytotoxicity against rat C6 cells assessed as cell viability measured after 24 hrs by MTT assay. As to conditions: C6, 24 h. The data set is classed as functional, cell-based.
In another data set the test system is A549. Briefly: Cytotoxicity against human A549 cells assessed as cell viability measured after 24 hrs by MTT assay. The data set is classed as functional, cell-based. The following applies: A549, 24 h.
The nature of data set [5]: Selectivity index, ratio of IC50 for cytotoxicity against mouse NIH3T3 cells to IC50 for cytotoxicity against human HT-29 cells. The data set is classed as toxicity, cell-based. As to conditions: NIH3T3 cells versus HT-29 cells, read-out: Ratio IC50.
In the next data set the test system is MCF7. The experiment in a line: Cytotoxicity against human MCF7 cells assessed as cell viability measured after 24 hrs by MTT assay. The data set is classed as functional, cell-based. The following applies: MCF7, 24 h.
Data set [6] in a line: Selectivity index, ratio of IC50 for cytotoxicity against mouse NIH3T3 cells to IC50 for cytotoxicity against rat C6 cells. The data set is classed as toxicity, cell-based. As to conditions: NIH3T3 cells versus C6 cells, read-out: Ratio IC50.
The test system of data set [7] is C6. The experiment in a line: Induction of apoptosis in rat C6 cells assessed as apoptotic cells at IC50 concentration measured after 24 hrs by Annexin V-FITC/PI staining based flow cytometry method relative to control. The data set is classed as functional. In general terms: In flow cytometry, cells or beads pass a laser one at a time.
In data set [8] the test system is C6. Briefly: Inhibition of DNA synthesis in rat C6 cells assessed as reduction in cell proliferation measured after 24 to 48 hrs by BrdU proliferation assay. Format: functional, cell-based. As to conditions: time 24-48 hrs.

Bounds are passed on as bounds.

In the case of `Cc1cc(-c2nc3cc(Cl)ccc3o2)ccc1NC(=O)CN1CCN(CCCN(C)C)CC1`, the selectivity ratio in data set [1] stood at 0.45; in [2], 2.73; in data set [3] it was 2.56; in [5], 3.12; in data set [6] it was 2.01. Moreover, the IC50 in the data set on HepG2 is 11.2 µM; with NIH3T3, 28.6 µM; with HT-29 it was 9.15 µM; in the data set with C6 [4] it was 14.2 µM; with A549, 10.5 µM; in the data set on MCF7 it was 63.4 µM.

Take `Cc1ccc2oc(-c3ccc(NC(=O)CN4CCN(CCCN(C)C)CC4)c(C)c3)nc2c1`: the selectivity ratio in data set [1] amounted to 0.67; in [2], 0.87; in data set [3] it was 2.34; in data set [5] it was 1.04; in [6], 1.81. For the same compound, the concentration for half-maximal inhibition (IC50) in the data set on HepG2 was 5.65 µM; in the data set with NIH3T3 it was 13.2 µM; in the data set with HT-29, 12.7 µM; in the data set on C6 [4] it was 7.32 µM; in the data set on A549, 15.3 µM; with MCF7, 19.8 µM.

On to `CN(C)CCN1CCN(CC(=O)Nc2ccc(-c3nc4cc(F)ccc4o3)cc2)CC1`, for which the selectivity ratio in [1] came out at 3.46; in [2] it was 4.33; in data set [3] it was 3.84; in data set [5] it was 8.79; in [6], 16.4. Besides, the IC50 is 18.8 µM in the data set on HepG2; 72 µM in the data set on NIH3T3; 8.19 µM in the data set with HT-29; 4.39 µM in the data set with C6 [4]; 16.6 µM in the data set on A549; 20.8 µM with MCF7. Moreover, in the data set with C6 [7], the Activity is listed as 46%. In addition, the inhibition entry with C6 [8] is “Dose-dependent effect”.

Regarding `Cc1cc(-c2nc3ccccc3o2)ccc1NC(=O)CCl`, the selectivity ratio in data set [1] worked out at 0.41; in data set [2] it was 0.36; in [3], 0.82; in data set [5], 0.88; in [6] it was 0.45. The concentration for half-maximal inhibition (IC50) in the data set on HepG2 was determined as 14.8 µM; in the data set on NIH3T3 it was 12.2 µM; with HT-29, 13.8 µM; in the data set on C6 [4], 27.2 µM; in the data set with A549 it was 33.5 µM; with MCF7, 29.8 µM.

With `O=C(CCl)Nc1ccc(-c2nc3cc(F)ccc3o2)cc1`, the selectivity ratio in data set [1] amounted to 2.82; in data set [2], 0.24; in data set [3], 1.13; in [5] it was 1.33; in [6], 3.07. Also, the IC50 in the data set with HepG2 came to 8.12 µM; with NIH3T3 it was 9.19 µM; in the data set with HT-29 it was 6.93 µM; in the data set on C6 [4] it was 2.99 µM; in the data set on A549, 37.7 µM; with MCF7, 3.26 µM.

On to `Cc1cc(-c2nc3cc(F)ccc3o2)ccc1NC(=O)CN1CCN(CCCN(C)C)CC1`, for which the selectivity ratio in data set [1] was found to be 8.45; in [2] it was 5.39; in [3] it was 9.19; in data set [5], 9.8; in data set [6], 5.59. Also, the IC50 stood at 7.15 µM in the data set on HepG2; 65.7 µM with NIH3T3; 6.7 µM in the data set on HT-29; 11.8 µM with C6 [4]; 12.2 µM in the data set with A549; 7.77 µM in the data set with MCF7.

`Cc1ccc2oc(-c3ccc(NC(=O)CN4CCN(CCN(C)C)CC4)c(C)c3)nc2c1`: the selectivity ratio came out at 0.06 in [1]; 0.51 in data set [2]; 0.44 in data set [3]; 0.78 in [5]; 0.34 in data set [6]. Moreover, the IC50 in the data set with HepG2 worked out at 12.8 µM; in the data set with NIH3T3, 5.67 µM; in the data set with HT-29, 7.24 µM; with C6 [4], 16.6 µM; with A549 it was 11 µM; with MCF7, 90.3 µM.

Take `CN(C)CCCN1CCN(CC(=O)Nc2ccc(-c3nc4cc(F)ccc4o3)cc2)CC1`: the selectivity ratio in data set [1] stood at 1.49; in data set [2], 1.8; in data set [3] it was 2.39; in data set [5] it was 8.46; in [6], 0.8. Besides, the IC50 was 9.18 µM with HepG2; 21.9 µM in the data set on NIH3T3; 2.59 µM in the data set on HT-29; 27.5 µM in the data set with C6 [4]; 12.2 µM with A549; 14.8 µM in the data set on MCF7.

Regarding `CN(C)CCCN1CCN(CC(=O)Nc2ccc(-c3nc4ccccc4o3)cc2)CC1`, the selectivity ratio in data set [1] is 0.71; in data set [2], 0.91; in data set [3] it was 1.76; in data set [5] it was 1.57; in data set [6], 0.39. The half-maximal inhibitory concentration (IC50) is 9.5 µM in the data set on HepG2; 16.7 µM with NIH3T3; 10.6 µM with HT-29; 42.3 µM with C6 [4]; 18.3 µM with A549; 23.4 µM with MCF7.

For the compound `Cc1cc(-c2nc3cc(F)ccc3o2)ccc1NC(=O)CCl`, the selectivity ratio in data set [1] is less than 0.11; in [2], 0.16; in data set [3], 0.63; in data set [5] it was 0.41; in data set [6] it was less than 0.11. Moreover, the IC50 is 16.6 µM in the data set on HepG2; 10.5 µM in the data set on NIH3T3; 25.4 µM with HT-29; more than 100 µM in the data set on C6 [4]; 64.5 µM in the data set with A549; more than 100 µM with MCF7.

As to `Cc1ccc2oc(-c3ccc(NC(=O)CCl)cc3)nc2c1`, the selectivity ratio in [1] was 2.5; in data set [2], 0.32; in data set [3], 0.54; in data set [5], 0.76; in [6] it was 2.86. Moreover, the IC50 in the data set with HepG2 is 21.5 µM; with NIH3T3, 11.6 µM; in the data set with HT-29, 15.2 µM; in the data set on C6 [4] it was 4.04 µM; with A549, 36.1 µM; in the data set on MCF7, 4.62 µM.

As to `Cc1ccc2oc(-c3ccc(NC(=O)CCl)c(C)c3)nc2c1`, the selectivity ratio in data set [1] was found to be 0.07; in data set [2] it was 0.11; in [3], 0.12; in data set [5], 0.49; in [6], 0.07. Moreover, the half-maximal inhibitory concentration (IC50) in the data set with HepG2 came to 54.8 µM; with NIH3T3, 6.79 µM; in the data set on HT-29, 13.8 µM; with C6 [4] it was 97.6 µM; with A549, 61.8 µM; in the data set on MCF7 it was 96.5 µM.

In the case of `Cc1cc(-c2nc3cc(Cl)ccc3o2)ccc1NC(=O)CCl`, the selectivity ratio is less than 0.09 in data set [1]; 0.09 in [2]; 0.25 in [3]; less than 0.09 in data set [5]; less than 0.09 in data set [6]. Further, the IC50 is 35 µM in the data set on HepG2; 8.64 µM in the data set with NIH3T3; more than 100 µM in the data set with HT-29; more than 100 µM in the data set on C6 [4]; 91.5 µM in the data set on A549; more than 100 µM with MCF7.

In the case of `Cc1cc(-c2nc3cc(F)ccc3o2)ccc1NC(=O)CN1CCN(CCN(C)C)CC1`, the selectivity ratio stood at 5.96 in data set [1]; 8.42 in data set [2]; 6.56 in [3]; 9.41 in data set [5]; 5.8 in data set [6]. The half-inhibitory concentration (IC50) in the data set on HepG2 turned out to be 9.46 µM; with NIH3T3, 62.1 µM; in the data set on HT-29, 6.6 µM; in the data set on C6 [4], 10.7 µM; in the data set on A549 it was 7.37 µM; in the data set on MCF7, 10.4 µM.

Take `Cc1cc(-c2nc3cc(Cl)ccc3o2)ccc1NC(=O)CN1CCN(CCN(C)C)CC1`: the selectivity ratio in [1] was 0.49; in [2], 0.79; in [3], 4.95; in data set [5], 1.45; in data set [6], 1.43. In addition, the IC50 was 3.88 µM in the data set with HepG2; 19.2 µM in the data set on NIH3T3; 13.2 µM with HT-29; 13.5 µM in the data set with C6 [4]; 24.4 µM with A549; 39.3 µM in the data set on MCF7.

On to `Cc1cc(-c2nc3ccccc3o2)ccc1NC(=O)CN1CCN(CCN(C)C)CC1`, for which the selectivity ratio in data set [1] came to 1.53; in data set [2] it was 2.09; in data set [3] it was 3.2; in data set [5] it was 4.94; in data set [6], 1.49. The IC50 was 19.9 µM in the data set on HepG2; 63.5 µM in the data set with NIH3T3; 12.9 µM in the data set on HT-29; 42.7 µM in the data set with C6 [4]; 30.5 µM in the data set on A549; 41.6 µM with MCF7.

As for `CN(C)CCN1CCN(CC(=O)Nc2ccc(-c3nc4ccccc4o3)cc2)CC1`, the selectivity ratio in data set [1] was 0.6; in [2] it was 1.92; in data set [3] it was 2.2; in data set [5], 6.74; in [6] it was 5.11. For the same compound, the half-inhibitory concentration (IC50) in the data set with HepG2 is 16.3 µM; in the data set with NIH3T3, 35.8 µM; in the data set on HT-29, 5.31 µM; in the data set with C6 [4], 7.01 µM; with A549, 18.7 µM; in the data set with MCF7 it was 59.4 µM.
